This note sets out measurements from US8802686B2, “Sulfone-substituted anilinopyrimidine derivatives as CDK inhibitors, the production thereof, and use as a medicine” (Bayer Intellectual Property GmbH, priority 2008, dated 2014).

Like-named read-outs stand apart in the source and are kept apart here.

In one assay the target is CDK1/CycB (Homo sapiens (Human), UniProt P06493). Nature of the assay: CDK1/CycB kinase assay (Assay 1). The assay is classed as biochemical. The note with it: read-out: CDK1/CycB (Assay 1) Concentration of the half-maximal inhibition of the enzyme activity, IC50.
Sequence of CDK1/CycB (P06493 whole entry): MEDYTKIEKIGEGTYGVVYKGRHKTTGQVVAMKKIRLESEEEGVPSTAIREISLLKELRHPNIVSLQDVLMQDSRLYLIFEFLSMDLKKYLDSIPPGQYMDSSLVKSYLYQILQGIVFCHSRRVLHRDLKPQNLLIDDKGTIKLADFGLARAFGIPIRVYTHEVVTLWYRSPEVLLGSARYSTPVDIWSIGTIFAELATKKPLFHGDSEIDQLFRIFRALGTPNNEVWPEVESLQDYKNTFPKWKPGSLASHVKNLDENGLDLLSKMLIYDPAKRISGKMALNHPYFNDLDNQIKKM
Sequence of CDK1/CycB (P14635 whole entry partner): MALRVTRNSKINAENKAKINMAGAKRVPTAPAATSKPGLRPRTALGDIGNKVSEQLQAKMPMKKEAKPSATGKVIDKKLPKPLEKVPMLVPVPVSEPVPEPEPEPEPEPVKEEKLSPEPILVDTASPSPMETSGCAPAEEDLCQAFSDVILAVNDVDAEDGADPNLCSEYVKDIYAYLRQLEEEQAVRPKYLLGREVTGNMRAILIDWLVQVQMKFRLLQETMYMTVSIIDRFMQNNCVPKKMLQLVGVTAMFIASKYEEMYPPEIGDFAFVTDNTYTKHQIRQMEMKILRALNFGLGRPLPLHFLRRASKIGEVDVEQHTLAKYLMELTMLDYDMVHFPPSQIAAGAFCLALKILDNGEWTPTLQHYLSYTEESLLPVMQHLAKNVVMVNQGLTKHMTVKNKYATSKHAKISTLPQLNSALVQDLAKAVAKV
The target of a further assay is CDK2/CycE (Homo sapiens (Human), UniProt P24941). Nature of the assay: CDK2/CycE kinase assay (Assay 2). The assay is classed as biochemical. The note with it: read-out: CDK2/CycE (Assay 2) Concentration of the half-maximal inhibition of the enzyme activity, IC50.
Assay [1] deals with Caco-2, human colon carcinoma cells. Put plainly: Proliferation assay (Assay 5), Caco-2. To be noted: 96 h, Caco-2, 4 days, read-out: Concentration of the half-maximal inhibition of the cell proliferation, IC50. The assay is classed as cell-based. An excerpt: (§1) Cultivated human tumour cells (MCF7, hormone-independent human breast carcinoma cells, acquired from ATCC HTB22; NCI-H460, human non-small-cell lung carcinoma cells, ATCC HTB-177; DU 145, hormone-independent human prostrate carcinoma cells, ATCC HTB-81; HeLa-MaTu, human cervix carcinoma cells, EPO-GmbH, Berlin; HeLa-MaTu-MDR, multiple drug-resistant human cervix carcinoma cells, EPO-GmbH, Berlin; Caco-2, human colon carcinoma cells, ATCC HTB-37; B16F10, murine melanoma cell, ATCC CRL-6475) were plated out at a density of ca. 1000-5000 cells/measuring point, depending on the growth rate of the particular cells, in a 96-well multititre plate in 200 μl of the corresponding growth medium. After 24 hours, the cells of one plate (zero-point plate) were stained with crystal violet (see below), whereas the medium of the other plates was replaced with fresh culture medium (200 μl), to which the test substances had been added at different concentrations (0 μM, and in the range 0.003-3 μM; the final concentration of the solvent dimethyl sulphoxide was 0.5%). The cells were incubated for 4 days in the presence of the test substances. Cell proliferation was determined by staining the cells with crystal violet: the cells were fixed by adding 20 μl/measuring point of an 11% glutaraldehyde solution for 15 min at room temperature. After washing the fixed cells with water three times, the plates were dried at room temperature. The cells were stained by adding 100 μl/measuring point of a 0.1% crystal violet solution (pH adjusted to pH 3 by adding acetic acid). After washing the stained cells with water three times, the plates were dried at room temperature. The dye was dissolved by adding 100 μl/measuring point of a 10% acetic acid solution. The extinction was determined photometrically at a wavelength of 595 nm. […] The IC50 values were determined by means of a 4-parameter fit using the company's own software.

Assay [2] has as its system B16F10, murine melanoma cell. Put plainly: Proliferation assay (Assay 5), B16F10. The assay is classed as cell-based. The note with it: Mus musculus, B16-F10, 96 h; B16F10, 4 days; read-out: Concentration of the half-maximal inhibition of the cell proliferation, IC50.
From the text: as §1

In assay [3] the test system is NCI-H460, human non-small-cell lung carcinoma cells. Nature of the assay: Proliferation assay (Assay 5), NCI-H460. The assay is classed as cell-based. The note with it: 96 h, NCI-H460, 4 days, read-out: Concentration of the half-maximal inhibition of the cell proliferation, IC50.
From the text: as §1

Assay [4] deals with MCF7, hormone-independent human breast carcinoma cells. Nature of the assay: Proliferation assay (Assay 5), MCF7. The assay is classed as cell-based. To be noted: read-out: Concentration of the half-maximal inhibition of the cell proliferation, IC50.
From the text: as §1

The test system of assay [5] is DU 145, hormone-independent human prostrate carcinoma cells. Nature of the assay: Proliferation assay (Assay 5), DU145. The note with it: DU-145, 96 h, DU145, 4 days, read-out: Concentration of the half-maximal inhibition of the cell proliferation, IC50. The assay is classed as cell-based.
From the text: as §1

Assay [6] has as its system HeLa-MaTu-ADR (HeLa-MaTu-MDR, multiple drug-resistant human cervix carcinoma cells). Nature of the assay: Proliferation assay (Assay 5), HeLa-MaTu-ADR. The assay is classed as cell-based. The note with it: 96 h, HeLa-MaTu-ADR, 4 days, read-out: Concentration of the half-maximal inhibition of the cell proliferation, IC50.
From the text: as §1

The target of assay [7] is VEGF receptor tyrosine kinase-2 (VEGF-R2) (Homo sapiens (Human), UniProt P35968). Put plainly: VEGF receptor-2 kinase assay (Assay 4). The assay is classed as biochemical. To be noted: read-out: VEGF-R2 (Assay 4) Concentration of the half-maximal inhibition of the enzyme activity, IC50.
Sequence of VEGF receptor tyrosine kinase-2 (VEGF-R2) (P35968 20-1356, species assumed): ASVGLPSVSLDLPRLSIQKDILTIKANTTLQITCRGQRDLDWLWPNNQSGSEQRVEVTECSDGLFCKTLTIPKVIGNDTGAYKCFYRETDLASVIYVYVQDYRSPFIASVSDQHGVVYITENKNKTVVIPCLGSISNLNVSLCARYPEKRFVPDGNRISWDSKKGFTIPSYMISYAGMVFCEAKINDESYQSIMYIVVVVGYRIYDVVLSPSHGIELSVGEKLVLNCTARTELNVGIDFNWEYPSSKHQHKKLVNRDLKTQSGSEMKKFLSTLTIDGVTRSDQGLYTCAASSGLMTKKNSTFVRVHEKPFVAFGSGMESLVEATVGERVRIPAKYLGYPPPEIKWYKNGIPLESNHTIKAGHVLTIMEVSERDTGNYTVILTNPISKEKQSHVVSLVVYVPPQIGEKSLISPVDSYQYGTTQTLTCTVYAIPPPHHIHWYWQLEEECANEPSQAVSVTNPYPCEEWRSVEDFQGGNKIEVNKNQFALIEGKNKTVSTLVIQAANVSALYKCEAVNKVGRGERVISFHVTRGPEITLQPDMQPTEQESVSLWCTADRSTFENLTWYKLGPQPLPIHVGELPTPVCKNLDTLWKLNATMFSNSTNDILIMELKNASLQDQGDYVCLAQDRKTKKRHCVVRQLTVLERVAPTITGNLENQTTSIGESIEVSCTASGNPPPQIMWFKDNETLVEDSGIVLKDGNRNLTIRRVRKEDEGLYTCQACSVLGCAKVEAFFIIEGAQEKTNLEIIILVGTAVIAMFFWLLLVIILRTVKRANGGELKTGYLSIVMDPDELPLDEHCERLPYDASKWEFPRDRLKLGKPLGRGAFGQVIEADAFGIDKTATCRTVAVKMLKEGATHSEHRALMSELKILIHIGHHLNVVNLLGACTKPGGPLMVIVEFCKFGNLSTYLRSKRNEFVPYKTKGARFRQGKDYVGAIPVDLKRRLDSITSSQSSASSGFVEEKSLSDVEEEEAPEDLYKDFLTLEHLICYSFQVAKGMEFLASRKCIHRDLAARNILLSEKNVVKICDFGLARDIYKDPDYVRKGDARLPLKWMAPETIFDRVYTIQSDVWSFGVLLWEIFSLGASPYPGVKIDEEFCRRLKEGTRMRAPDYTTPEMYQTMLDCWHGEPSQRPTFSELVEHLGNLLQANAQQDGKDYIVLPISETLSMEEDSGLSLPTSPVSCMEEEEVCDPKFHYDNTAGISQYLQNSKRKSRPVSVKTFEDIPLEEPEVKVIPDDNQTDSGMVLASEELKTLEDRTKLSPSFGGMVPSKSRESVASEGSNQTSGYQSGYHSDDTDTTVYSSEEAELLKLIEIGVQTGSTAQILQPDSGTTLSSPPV
Description: Recombinant VEGF receptor tyrosine kinase-2 was purified as GST fusion protein from baculovirus-infected insect cells (Sf9). Poly-(Glu4Tyr), which was used as kinase substrate, was purchased from Sigma.
VEGF receptor tyrosine kinase (90 ng/measuring point) was incubated for 10 min at 22° C. in the presence of different concentrations of test substances (0 μM, and within the range 0.001-10 μM) in 30 μl of assay buffer [40 mM Tris/HCl pH 5.5; 10 mM MgCl2; 1 mM MnCl2; 3 μM Na ortho-vanadate; 1.0 mM dithiothreitol; 8 μM adenosine trisphosphate (ATP); 0.96 μg/measuring point poly-(Glu4Tyr); 0.2 μCi/measuring point ^33P-gamma ATP; 1.4% dimethyl sulphoxide]. The reaction was stopped by adding EDTA solution (250 mM; pH 8.0; 15 μl/measuring point).
(§2) From each reaction mixture, 15 μl were applied to P30 filter strips (Wallac), and unincorporated ^33P-ATP was removed by washing the filter strips three times, for 10 min in each case, in 0.5% phosphoric acid. After drying the filter strips for 1 hour at 70° C., the filter strips were covered with scintillator strips (MeltiLex™ A, Wallac) and stoved for 1 hour at 90° C. The amount of incorporated ^33P (substrate phosphorylation) was determined by scintillation measurement in a gamma-radiation measuring instrument (Wallac). […] The IC50 values were determined by means of a 4-parameter fit using the company's own software.
In another assay the target is CDK4/CycD1 (Homo sapiens (Human), UniProt P11802). Nature of the assay: CDK4/CycD kinase assay (Assay 3). The assay is classed as biochemical. To be noted: read-out: CDK4/CycD (Assay 3) Concentration of the half-maximal inhibition of the enzyme activity, IC50. The protocol:
Recombinant CDK4 and CycD1-GST fusion proteins, purified from baculovirus-infected insect cells (Sf9), were purchased from ProQinase GmbH, Freiburg. CDK4/CycD1 (250 ng/measuring point) was incubated for 3 hours at 22° C. in the presence of different concentrations of test substances (0 μM, and within the range 0.001-10 μM) in 31 μl of assay buffer [50 mM Hepes pH 7.0; 2.5 mM MnCl; 0.05 mM Na ortho-vanadate; 1.0 mM dithiothreitol; 0.25 μM adenosine trisphosphate (ATP); 0.5 μM biotinylated myelin basic protein (bio-MPB, GE Healthcare); 0.05 μCi/measuring point ^33P-gamma ATP; 0.005% NP40; 0.025% bovine serum albumin; 3% dimethyl sulphoxide]. The reaction was stopped by adding 50 μl of stop-mix [100 μM ATP; 10 mM EDTA pH 8.0; 0.2% Triton X100; 0.125 mg of streptavidin-SPA Beads (GE Healthcare)]. After incubation for 10 min at room temperature, the SPA beads were pelleted by centrifugation (10 min; 1500 g). The amount of incorporated ^33P (substrate phosphorylation) was determined by scintillation measurement in a beta-radiation measuring instrument (Microbeta, Perkin Elmer).

Sequence of CDK4/CycD1 (P11802 whole entry, the tested form may be a part): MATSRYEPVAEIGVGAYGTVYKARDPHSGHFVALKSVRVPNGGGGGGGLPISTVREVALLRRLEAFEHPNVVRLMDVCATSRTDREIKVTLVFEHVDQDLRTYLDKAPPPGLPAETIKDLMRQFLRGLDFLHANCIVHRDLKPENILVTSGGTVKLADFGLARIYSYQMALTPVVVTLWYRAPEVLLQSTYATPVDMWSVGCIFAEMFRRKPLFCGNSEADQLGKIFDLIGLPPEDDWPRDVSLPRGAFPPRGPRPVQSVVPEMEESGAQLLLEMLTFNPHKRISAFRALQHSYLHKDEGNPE
Sequence of CDK4/CycD1 (P24385 whole entry partner, the tested form may be a part): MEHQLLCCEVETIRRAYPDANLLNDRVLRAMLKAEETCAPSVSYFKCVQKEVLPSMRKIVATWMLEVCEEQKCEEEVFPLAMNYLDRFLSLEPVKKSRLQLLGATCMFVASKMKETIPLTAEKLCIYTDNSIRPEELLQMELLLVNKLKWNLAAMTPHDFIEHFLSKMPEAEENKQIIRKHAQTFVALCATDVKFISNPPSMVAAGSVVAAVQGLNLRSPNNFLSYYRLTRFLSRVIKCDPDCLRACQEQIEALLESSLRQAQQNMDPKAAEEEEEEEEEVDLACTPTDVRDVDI
Description for CDK1/CycB: CDK1/CycB (200 ng/measuring point) was incubated for 10 min at 22° C. in the presence of different concentrations of test substances (0 and within the range 0.001-10 μM) in assay buffer [50 mM Tris/HCl pH 8.0; 10 mM MgCl2; 0.1 mM Na ortho-vanadate; 1.0 mM dithiothreitol; 0.5 μM adenosine trisphosphate (ATP); 10 μg/measuring point histone IIIS; 0.2 μCi/measuring point ^33P-gamma ATP; 0.05% NP40; 1.25% dimethyl sulphoxide]. The reaction was stopped by adding EDTA solution (250 mM; pH 8.0; 15 μl/measuring point).
From each reaction mixture, 15 μl were applied to P30 filter strips (Wallac), and unincorporated ^33P-ATP was removed by washing the filter strips three times, for 10 min in each case, in 0.5% phosphoric acid. After drying the filter strips for 1 hour at 70°, the filter strips were covered with scintillator strips (MeltiLex™ A, Wallac) and stoved for 1 hour at 90° C. The amount of incorporated ^33P (substrate phosphorylation) was determined by scintillation measurement in a gamma-radiation measuring instrument (Wallac). […] The IC50 values were determined by means of a 4-parameter fit using the company's own software.
Description for CDK2/CycE: Recombinant CDK2 and CycE-GST fusion proteins, purified from baculovirus-infected insect cells (Sf9), were purchased from ProQinase GmbH, Freiburg. Histone IIIS, which was used as kinase substrate, was purchased from Sigma.
CDK2/CycE (50 mg/measuring point) was incubated for 10 min at 22° C. in the presence of different concentrations of test substances (0 μM, and within the range 0.001-10 μM) in assay buffer [50 mM Tris/HCl pH 8.0; 10 mM MgCl2; 0.1 mM Na ortho-vanadate; 1.0 mM dithiothreitol; 0.5 μM adenosine trisphosphate (ATP); 10 μg/measuring point histone IIIS; 0.2 μCi/measuring point ^33P-gamma ATP; 0.05% NP40; 1.25% dimethyl sulphoxide]. The reaction was stopped by adding EDTA solution (250 mM; pH 8.0; 15 μl/measuring point).
as §2

With `C[C@@H](O)[C@@H](C)Oc1nc(Nc2ccc(S(=O)(=O)CCO)cc2)ncc1C(F)(F)F` [Example 11, (2R,3R)-3-{2-[4-(2-Hydroxyethanesulphonyl)phenylamino]-5-trifluoromethylpyrimidin-4-yloxy}butan-2-ol], the IC50 on CDK1/CycB and on CDK2/CycE was 0.003 µM throughout.

Take `C=CCS(=O)(=O)c1ccc(Nc2ncc(C(F)(F)F)c(O[C@H](C)C(C)(C)O)n2)cc1` [Example 8, (R)-2-Methyl-3-{2-[4-(prop-2-ene-1-sulphonyl)phenylamino]-5-trifluoromethylpyrimidin-4-yl-oxy}butan-2-ol]: the values for the IC50 on CDK1/CycB and at CDK2/CycE were 0.043 µM and 0.011 µM, respectively.

Consider `C[C@@H](Oc1nc(Nc2ccc(S(=O)(=O)C3CC3)cc2)ncc1C(F)(F)F)C(C)(C)O` [Example 4, (R)-3-[2-(4-Cyclopropanesulphonylphenylamino)-5-tri-fluoromethylpyrimidin-4-yloxy]-2-methylbutan-2-ol], for which the IC50 was determined as 0.205 µM in assay [1]; 0.287 µM in [2]; 0.226 µM in [3]; 0.105 µM in assay [4] (96 h, MCF7, 4 days); 0.036 µM at CDK1/CycB; 0.021 µM at CDK2/CycE. The IC50 in assay [5] was found to be 0.194 µM; in [6], 0.142 µM.

As to `C[C@@H](Nc1nc(Nc2ccc(S(C)(=O)=O)cc2)ncc1C(F)(F)F)C(C)(C)O` [C3, (R)-3-[2-(4-Methanesulphonylphenylamino) 5-trifluoro-methylpyrimidin-4-ylamino]-2-methylbutan-2-ol, reference compound], the IC50 in assay [1] stood at 0.133 µM; in assay [2], 0.106 µM; in assay [3] it was 0.093 µM; in [4] (96 h, MCF7, 4 days), 0.061 µM; on CDK1/CycB it was 0.009 µM; at CDK2/CycE, 0.008 µM. Also, the IC50 in [5] was 0.06 µM; in assay [7], 0.19 µM; in assay [6], 0.037 µM; at CDK4/CycD1, 0.024 µM.

Consider `C#CCOc1nc(Nc2ccc(S(C)(=O)=O)cc2)ncc1C(F)(F)F` [Example 13, (4-Methanesulphonylphenyl)(4-prop-2-ynyloxy-5-trifluoromethylpyrimidin-2-yl)amine], for which the IC50 in assay [4] (MCF7, 96 h) is 0.74 µM; at CDK1/CycB, 0.13 µM; on CDK2/CycE, 0.025 µM.

Take `CS(=O)(=O)c1ccc(Nc2ncc(C(F)(F)F)c(OCCC(F)(F)F)n2)cc1` [Example 14, (4-Methanesulphonylphenyl)[5-trifluoromethyl-4-(3,3,3-trifluoropropoxy)pyrimidin-2-yl]amine]: the IC50 in assay [4] (MCF7, 96 h) stood at 2.2 µM; on CDK1/CycB, 0.74 µM; on CDK2/CycE it was 0.094 µM.

As to `C=CCOc1nc(Nc2ccc(S(C)(=O)=O)cc2)ncc1C(F)(F)F` [Example 15, (4-Allyloxy-5-trifluoromethylpyrimidin-2-yl)(4-methane-sulphonylphenyl)amine], the IC50 in assay [4] (96 h, MCF7, 4 days) was found to be 1.5 µM; at CDK1/CycB, 0.28 µM; at CDK2/CycE it was 0.049 µM.

Take `C[C@@H](O)[C@@H](C)Oc1nc(Nc2ccc(S(=O)(=O)C3CCCC3)cc2)ncc1C(F)(F)F` [Example 7, (2R,3R)-3-[2-(4-Cyclopentanesulphonylphenylamino)-5-triluoromethylpyrimidin-4-yloxy]butan-2-ol]: the figures for the IC50 on CDK1/CycB and at CDK2/CycE were 0.023 µM and 0.021 µM, respectively.

As for `C#CCS(=O)(=O)c1ccc(Nc2ncc(C(F)(F)F)c(O[C@H](C)C(C)(C)O)n2)cc1` [Example 10, (R)-2-Methyl-3-{2-[4-(prop-2-yne-1-sulphonyl)phenylamino]-5-trifluoromethylpyrimidin-4-yloxy}butan-2-ol], the IC50 at CDK1/CycB is 0.082 µM; at CDK2/CycE, 0.043 µM.

Take `CS(=O)(=O)c1ccc(Nc2ncc(C(F)(F)F)c(OC3CCCCC3)n2)cc1` [Example 16, (4-Cyclohexyloxy-5-trifluoromethylpyrimidin-2-yl)(4-methanesulphonylphenyl)amine]: the IC50 in assay [4] (96 h, MCF7, 4 days) is 1.4 µM; at CDK1/CycB, more than 1 µM; on CDK2/CycE, 0.48 µM.

For the compound `CC(C)S(=O)(=O)c1ccc(Nc2ncc(C(F)(F)F)c(O[C@H](C)[C@@H](C)O)n2)cc1` [Example 9, (2R,3R)-3-{2-[4-(Propane-2-sulphonyl)phenylamino]-5-trifluoromethylpyrimidin-4-yloxy}butan-2-ol], the IC50 on CDK1/CycB stood at 0.012 µM; on CDK2/CycE, 0.006 µM.

Regarding `COC[C@@H](C)Oc1nc(Nc2ccc(S(C)(=O)=O)cc2)ncc1C(F)(F)F` [Example 12, (4-Methanesulphonylphenyl) [4-((R)-2-methoxy-1-methyl-ethoxy)-5-trifluoromethylpyrimidin-2-yl]amine], the IC50 came out at 0.191 µM in [4] (96 h, MCF7, 4 days); 0.051 µM at CDK1/CycB; 0.012 µM on CDK2/CycE.

Take `C[C@@H](O)[C@@H](C)Oc1nc(Nc2ccc(S(=O)(=O)c3ccccc3)cc2)ncc1C(F)(F)F` [Example 5, (2R,3R)-3-[2-(4-Benzenesulphonylphenylamino)-5-tri-fluoromethylpyrimidin-4-yloxy]butan-2-ol]: the IC50 was found to be 0.041 µM at CDK1/CycB and 0.036 µM at CDK2/CycE.

Regarding `C[C@@H](O)[C@@H](C)Oc1nc(Nc2ccc(S(=O)(=O)C(F)F)cc2)ncc1C(F)(F)F` [Example 6, (2R,3R)-3-{2-[4-(Difluoromethanesulphonyl)phenylamino]-5-trifluoromethylpyrimidin-4-yloxy}butan-2-ol], the IC50 on CDK1/CycB came out at 0.024 µM; at CDK2/CycE it was 0.012 µM.
